Data on 7 compounds can be found in article PMC3554599, “Hydrophobic analogues of rhodamine B and rhodamine 101: potent fluorescent probes of mitochondria in living C. elegans” (Beilstein Journal of Organic Chemistry, 2012).

Read-outs that look alike come from different tables or passages of the source.

Series [1] concerns mitochondria in living C. elegans. The experiment in a line: Confocal laser scanning microscopy of living adult C. elegans treated with fluorophores. As to conditions: for bioaccumulation among the fluorophores examined: 100 pM or 1 nM, 20× objective; for selectivity of intracellular staining: living C. elegans; for time to observable fluorescence in some animals / time until most animals became fluorescent: living adult C. elegans. The class given is in vivo.

Series [2] can be described thus: log D by fluorescence-based shake-flask method, octanol/phosphate buffer pH 7.4. The series is classed as physicochemical. To be noted: for enhanced partitioning into octanol compared with aqueous buffer, relative to parent compound: methyl analogue vs parent rhodamine B / rhodamine 101; for logD: octanol/phosphate buffer (1:1), octanol/buffer pH 7.4, fluorescence-based shake-flask, 24 h, 25 °C. The method, then: Values of log D were measured by dissolution of solids in 1:1 octanol/phosphate buffer (4 mL total volume, 5 mM phosphate, pH 7.4) to provide 5 mM solutions of the fluorophore. Samples were shaken for 24 h at 25 °C to equilibrate. […] Aliquots of these fractions were diluted in octanol (derived from the top fraction) or buffer (derived bottom fraction) to generate stock solutions (10×) appropriate for analysis. These stock solutions were further diluted 10-fold and analyzed in a solvent mixture comprising ethanol (80%), octanol (10%), and phosphate buffer (10%, pH 7.4). The ratio of fluorescence emission at λmax was used to calculate log D.

Series [3] in a line: Quantum yield by the method of Williams in MeOH. The class given is physicochemical. To be noted: relative to rhodamine B and rhodamine 6G. The method, then:
(§1) The red-shifted spectra of HR101 10 compared with HRB 9 can be explained by greater delocalization of the lone pairs on nitrogen due to restricted rotation about C–N bonds conferred by the fused rings of 10. By using the method of Williams, the quantum yields of 9 and 10 were determined relative to rhodamine B (5) and rhodamine 6G (7, Figure 3, panels A and B), and the extinction coefficients of these compounds were quantified (Figure 3, panel C). The replacement of the carboxylate of rhodamine B (5) and rhodamine 101 (8) with a methyl group slightly red shifted the absorbance and emission spectra in methanol (5 nm and 8 to 9 nm, respectively). […] Additionally, a modest reduction in quantum yield of ~0.3 for both fluorophores was observed.
(§2) Figure 3 Linear regression used to determine spectroscopic parameters of HRB 9 and HR101 10 in MeOH. Panels A and B: Determination of quantum yields relative to rhodamine B (5) and rhodamine 6G (7). Panel C: Quantification of molar extinction coefficients. TEXT PRINTED IN THE PICTURE: (A) RhB 5: Φ = 0.69 | (A) Rh6G 7: Φ = 0.93 | (B) HRB 9: Φ = 0.39 | (B) HR101 10: Φ = 0.60 | (C) HRB 9: ε555 nm = 83,000 M^-1 cm^-1 | (C) HR101 10: ε576 nm = 107,000 M^-1 cm^-1

Series [4] in a line: Molar extinction coefficient by linear regression of absorbance. The class given is physicochemical. As for the experimental part:
as §1, §2

Series [5] deals with C. elegans. As to conditions: N2, C. elegans, in vivo, 2 h.
The conditions of series [6]: octanol/neutral buffer, cited from earlier work.
The conditions of series [7]: MeOH; cited from earlier work.
On the set-up of series [8]: method as in PMID 15571431. To be noted: 545 nm in ethanol; cited from earlier work.

On to `CCOC(=O)c1ccccc1-c1c2ccc(=[N+](CC)CC)cc-2oc2cc(N(CC)CC)ccc12` [Basic Violet 11 (6), basic violet 11, reference compound], for which, in series [1] (2 h), the “bioaccumulation among the fluorophores examined” value was “highest bioaccumulation” and the “selectivity of intracellular staining” value is on record as “low selectivity”.

On to `Cc1ccccc1C1=c2cc3c4c(c2Oc2c1cc1c5c2CCCN5CCC1)CCC[N+]=4CCC3` [HR101 10, 16-(2-Methylphenyl)-3-oxa-9,23-diazaheptacyclo[17.7.1.1^{5,9}.0^{2,17}.0^{4,15}.0^{23,27}.0^{13,28}]octacosa-1(27),2(17),4,9(28),13,15,18-heptaen-9-ium], for which, in series [2], the “enhanced partitioning into octanol compared with aqueous buffer, relative to parent compound” value is listed as not below 10 fold and the logD is 6.2. In series [1] (2 h), the “bioaccumulation among the fluorophores examined” value is “highest bioaccumulation” and the “selectivity of intracellular staining” value is recorded as “most specific mitochondrial stains”. Moreover, in series [1], the “time to observable fluorescence in some animals” value is given as not above 30 min and the “time until most animals became fluorescent” value is not above 2 h. The “quantum yield Φ” value in series [3] amounted to 0.60. Also, the “molar extinction coefficient ε576 nm” value in series [4] (576 nm in MeOH) is given as 107,000 M^-1 cm^-1. For the same compound, the “concentration conferring some toxicity” value in series [5] is on record as not below 1 mM.

For `CCN(CC)c1ccc2c(-c3ccccc3C)c3ccc(=[N+](CC)CC)cc-3oc2c1` [HRB 9, 6-(Diethylamino)-N,N-diethyl-9-(2-methylphenyl)-3H-xanthen-3-imine], in series [2], the “enhanced partitioning into octanol compared with aqueous buffer, relative to parent compound” value is not below 10 fold and the pH-dependent lipophilicity (logD) turned out to be 5.9. Further, in series [1] (2 h), the “bioaccumulation among the fluorophores examined” value is recorded as “highest bioaccumulation” and the “selectivity of intracellular staining” value was “most specific mitochondrial stains”. In series [1], the “time to observable fluorescence in some animals” value is not above 30 min and the “time until most animals became fluorescent” value is not above 2 h. The “quantum yield Φ” value in series [3] came to 0.39. In addition, the “molar extinction coefficient ε555 nm” value in series [4] (555 nm in methanol) is recorded as 83,000 M^-1 cm^-1. Moreover, the “concentration conferring some toxicity” value in series [5] is given as not below 1 mM.

As for `CC/N=c1\cc2oc3cc(NCC)c(C)cc3c(-c3ccccc3C(=O)OCC)c-2cc1C` [Rhodamine 6G (7), rhodamine 6G], the “selectivity of intracellular staining” value in series [1] (2 h) is “most specific mitochondrial stains”. Further, the “log D octanol/buffer” value in series [6] (ref 37) was 2.1 [37]. Moreover, the “quantum yield Φ (standard)” value in series [7] was 0.93.

In series [2], `O=C([O-])c1ccccc1C1=c2cc3c4c(c2Oc2c1cc1c5c2CCCN5CCC1)CCC[N+]=4CCC3` [Rhodamine 101 (8), rhodamine 101] returned a logD of 5.2. In addition, the “penetration into germline, cells and tissues” value in series [1] (60× objective, 2 h, rhodamine 101 at 100-fold higher concentration than HRB 9 and HR101 10) is “did not penetrate into the germline”.

Regarding `COC(=O)c1ccccc1-c1c2ccc(=N)cc-2oc2cc(N)ccc12` [Rhodamine 123 (4), rhodamine 123], the “log D octanol/buffer” value is recorded as −0.62 in series [6] (listed as rhodamine 123 (4)), −0.6 in series [6] (ref 9) and 0.5 in series [6] (ref 37).

Take rhodamine B [Rhodamine B (5)]: the “log D octanol/buffer” value in series [6] (ref 46) was 2.3 [46]. For the same compound, the “quantum yield Φ (standard)” value in series [7] is reported as 0.69. In addition, the molar extinction coefficient in series [8] was 106,000 M^−1 cm^−1.

Usually logD stands for lipophilicity at a set pH, counting ionised and neutral species.
